Test results reported in patent publication US6916478B2, “Vaccines and pharmaceutical compositions using membrane vesicles of microorganisms, and methods for preparing same” (priority 1995, dated 2005).

Legend:
[1] = test system: P. aeruginosa strain H 103; assay: Antibiotic susceptibility test (MIC of gentamicin by dilution in MHB); format: cell-based, Pseudomonas aeruginosa; conditions: strain H 103, dilution in MHB
Experimental: (§1) Antibiotic susceptibility test. The Minimum Inhibitory Concentrations (MICs) of gentamicin were determined by dilution in MHB. The MICs for strains H 103 and ATCC 19660 were 2 and 2.5 μg/ml, respectively.

[2] = test system: P. aeruginosa strain ATCC 19660; assay: as above; format: cell-based, Pseudomonas aeruginosa; conditions: strain ATCC 19660, dilution in MHB
Experimental: as §1

Escherichia coli DH5α = assay: Antibiotic susceptibility (broth dilution in Muller-Hinton broth); format: cell-based
Experimental: (§2) Antibiotic susceptibility. The susceptibilities of bacterial strains to gentamicin (Sigma) were determined by broth dilution method in Muller-Hinton broth (Kadurugamuwa, J. L. et al, 1993 Antimicrob. Agents Chemother. 37:715-721). The MICs for PAO1, 8803, D2C, and DH5α were 2, 128 (10), 1.0, and 1.0 μg/ml, respectively.

[3] = test system: Staphylococcus aureus Newman D2C; assay: as above; format: cell-based
Experimental: as §2

P. aeruginosa PAO1 [4] = assay: as above; format: cell-based, Pseudomonas aeruginosa
Experimental: as §2

P. aeruginosa 8803 [5] = assay: as above; format: cell-based, Pseudomonas aeruginosa; conditions: 8803 (permeability-type gentamicin resistance)
Experimental: as §2

P. aeruginosa PAO1 [6] = assay: Bactericidal activity (viable counting 0-5 h); format: cell-based, Pseudomonas aeruginosa; conditions: MVs 100 μg protein/ml, gentamicin 2.5×MIC, FIG. 23(c)
Experimental: (§3) Bacteriolytic activity. […] Exponential growth phase cultures grown in TSB were diluted in fresh TSB to produce a bacterial suspension of 10^8 CFU/ml.

P. aeruginosa 8803 [7] = assay: Bactericidal activity (viable counting 0-5 h); format: cell-based, Pseudomonas aeruginosa; conditions: MVs 100 μg protein/ml, gentamicin 100 μg/ml, FIG. 23(d)
Experimental: as §3

[8] = test system: intracellular S. flexneri; assay: g-MV effect on intracellular S. flexneri in infected human colonic epithelial cells; format: cell-based, Shigella flexneri; conditions: FIG. 17
Experimental: Incubation of g-MVs (25 μg MV protein/25 cm^2 cover slip) with S. flexneri infected human colonic epithelial cells (10^7 CFU/25 cm^2 cover slip) (Kadurugamuwa et al, 1991 Infect. Immun. 59:3464-3471) inhibited the multiplication of intracellular bacteria by approximately 88% in the first hour of incubation (FIG. 17). […] Gentamicin could only enter these cells because it was packaged into a bilayered MV which could […] with the otherwise impermeable membrane and liberate its contents into the cytoplasm. Soluble antibiotic had no effect on growth of intracellular bacteria confirming the impermeability of eucaryotic cell membrane to the antibiotic (FIG. 17). […] The small effect of n-MVs on intracellular bacteria was presumably due to murein hydrolases in n-MVs.

For gentamicin, the “Minimum Inhibitory Concentration (MIC)” value [1] was 2 µg/mL, the “Minimum Inhibitory Concentration (MIC)” value [2] was 2.5 µg/mL and the MIC (Escherichia coli DH5α) was 1.0 µg/mL. It also gave an MIC [3] of 1.0 µg/mL, an MIC (P. aeruginosa PAO1 [4]) of 2 µg/mL and an MIC (P. aeruginosa 8803 [5]) of 128 µg/mL. For the same substance, the “loss of viability of P. aeruginosa PAO1” value (P. aeruginosa PAO1 [6]) was “exquisitely sensitive”, the “lytic effect on P. aeruginosa 8803 culture” value (P. aeruginosa 8803 [7]) was “(almost) direct correspondence between the control culture and the culture subjected to soluble gentamicin” and the “effect on growth of intracellular bacteria” value [8] was “no effect”.
